Where “and” joins values, the source holds several entries; their conditions need not be identical. Equal values may be shown once. Toxic doses and inconclusive results are not listed. Rule for the calls: active = survival T/C of 150% or more; inactive = T/C below 125% in these data.
Test system: P388 leukemia ip, CD2F1 mice, survival T/C
Assay: NCI In Vivo Anticancer Drug Screen. Data for tumor model P388 Leukemia (intraperitoneal) in CD2F1 (CDF1) mice
Details: endpoint: median survival time, higher = longer survival
Method in brief: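 Mice carrying the transplanted tumor received test compound or vehicle. Survival was recorded in each group, and the value is the treated-group measurement divided by that of the vehicle-treated control group.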

[1] = dose: 25.0 mg/kg/injection, schedule: Q01DX009 (ip), vehicle: saline with Tween-80
[2] = dose: 50.0 mg/kg/injection, schedule: Q01DX009 (ip), vehicle: saline with Tween-80
[3] = dose: 100.0 mg/kg/injection, schedule: Q01DX009 (ip), vehicle: saline with Tween-80
[4] = dose: 60.0 mg/kg/injection, schedule: Q01DX005 (ip), vehicle: saline with Tween-80
[5] = dose: 120.0 mg/kg/injection, schedule: Q01DX005 (ip), vehicle: saline with Tween-80
[6] = dose: 240.0 mg/kg/injection, schedule: Q01DX005 (ip), vehicle: saline with Tween-80
[7] = dose: 50.0 mg/kg/injection, schedule: Q04DX003 (ip), vehicle: saline with Tween-80
[8] = dose: 200.0 mg/kg/injection, schedule: Q01DX009 (ip), vehicle: saline with Tween-80
[9] = dose: 7.5 mg/kg/injection, schedule: Q01DX005 (ip), vehicle: saline with Tween-80
[10] = dose: 15.0 mg/kg/injection, schedule: Q01DX005 (ip), vehicle: saline with Tween-80

Measured: T/C

Cc1ccc(S(=O)(=O)Nc2ccc3nc(C)oc3c2)cc1
inactive: dose: 100.0 mg/kg/injection, schedule: Q01DX001 (ip), vehicle: saline with Tween-80 100 % of control | dose: 200.0 mg/kg/injection, schedule: Q01DX001 (ip), vehicle: saline with Tween-80 100 % of control | dose: 400.0 mg/kg/injection, schedule: Q01DX001 (ip), vehicle: saline with Tween-80 100 % of control

Nc1ccc(S(=O)(=O)Nc2ccc3oc(=O)[nH]c3c2)cc1
inactive: dose: 50.0 mg/kg/injection, schedule: Q04DX002 (ip), vehicle: Klucel (hydroxypropylcellulose) (HPC) 101 % of control | dose: 100.0 mg/kg/injection, schedule: Q04DX002 (ip), vehicle: Klucel (hydroxypropylcellulose) (HPC) 104 % of control | dose: 200.0 mg/kg/injection, schedule: Q04DX002 (ip), vehicle: Klucel (hydroxypropylcellulose) (HPC) 104 % of control

O=c1ccc(N=Nc2cccc([N+](=O)[O-])c2)ccc1O
inactive: [1] 107 % of control | [2] 104 % of control | [3] 104 % of control

Cc1cc(Br)c(NC(=S)SCc2ccc(Cl)cc2)cc1C
inactive: dose: 50.0 mg/kg/injection, schedule: Q01DX009 (ip), vehicle: suspension in saline 101 % of control | dose: 100.0 mg/kg/injection, schedule: Q01DX009 (ip), vehicle: suspension in saline 107 % of control | dose: 200.0 mg/kg/injection, schedule: Q01DX009 (ip), vehicle: suspension in saline 98 % of control

Cc1ccc(C)c(C2(c3cc(C)ccc3C)CCCCCC2=O)c1
inactive: dose: 100.0 mg/kg/injection, schedule: Q01DX005 (ip), vehicle: Klucel (hydroxypropylcellulose) (HPC) 88 % of control

COCCCN1CNC(=S)NC1
inactive: dose: 50.0 mg/kg/injection, schedule: Q01DX005 (ip), vehicle: saline with Tween-80 101 % of control | dose: 100.0 mg/kg/injection, schedule: Q01DX005 (ip), vehicle: saline with Tween-80 100 % of control | dose: 200.0 mg/kg/injection, schedule: Q01DX005 (ip), vehicle: saline with Tween-80 101 % of control

O=C(Cc1ccccc1)c1ccc(F)cc1
inactive: dose: 50.0 mg/kg/injection, schedule: Q01DX009 (ip), vehicle: Klucel (hydroxypropylcellulose) (HPC) 98 % of control | dose: 100.0 mg/kg/injection, schedule: Q01DX009 (ip), vehicle: Klucel (hydroxypropylcellulose) (HPC) 100 % of control | dose: 200.0 mg/kg/injection, schedule: Q01DX009 (ip), vehicle: Klucel (hydroxypropylcellulose) (HPC) 99 % of control

Cc1ccc(S(=O)(=O)OC2CCCCC2c2ccccc2)cc1 (configuration not stated)
inactive: dose: 6.25 mg/kg/injection, schedule: Q01DX001 (ip), vehicle: Klucel (hydroxypropylcellulose) (HPC) 102 % of control | dose: 12.5 mg/kg/injection, schedule: Q01DX001 (ip), vehicle: Klucel (hydroxypropylcellulose) (HPC) 116 % of control and 98 % of control | dose: 25.0 mg/kg/injection, schedule: Q01DX001 (ip), vehicle: Klucel (hydroxypropylcellulose) (HPC) 102 % of control and 90 % of control

O=C(CN1C(=O)NC(c2ccccc2)(c2ccccc2)C1=O)NCCN1CCOCC1
inactive: [4] 97 % of control | [5] 96 % of control | [6] 97 % of control

CCCCc1c(OC(=O)N(C)C)c(C#N)c2n(C)c3ccccc3n2c1=O
inactive: [4] 101 % of control and 86 % of control | [5] 95 % of control | [6] 93 % of control and 96 % of control

Cc1cc2cc(Cl)c(CN)cc2[nH]1
inactive: dose: 25.0 mg/kg/injection, schedule: Q04DX003 (ip), vehicle: Klucel (hydroxypropylcellulose) (HPC) 97 % of control | dose: 50.0 mg/kg/injection, schedule: Q04DX003 (ip), vehicle: Klucel (hydroxypropylcellulose) (HPC) 102 % of control | dose: 100.0 mg/kg/injection, schedule: Q04DX003 (ip), vehicle: Klucel (hydroxypropylcellulose) (HPC) 105 % of control and 107 % of control

Cc1ccc(C(F)(F)F)cc1N(O)C(C)(C)C
inactive: [7] 95 % of control | dose: 100.0 mg/kg/injection, schedule: Q04DX003 (ip), vehicle: saline with Tween-80 101 % of control | dose: 200.0 mg/kg/injection, schedule: Q04DX003 (ip), vehicle: saline with Tween-80 118 % of control

CCOC(=O)/C=C(\NC1CC(OC2C[C@](O)(C(C)=O)Cc3c(O)c4c(c(O)c32)C(=O)c2c(OC)cccc2C4=O)OC(C)C1O)C(=O)OCC (some centres not stated)
inactive: dose: 6.25 mg/kg/injection, schedule: Q04DX003 (ip), vehicle: saline with Tween-80 106 % of control | dose: 12.5 mg/kg/injection, schedule: Q04DX003 (ip), vehicle: saline with Tween-80 113 % of control | dose: 25.0 mg/kg/injection, schedule: Q04DX003 (ip), vehicle: saline with Tween-80 105 % of control | [7] 124 % of control

CCOC(=O)C(=CNc1cc(C)ccn1)C(=O)OCC
inactive: [2] 104 % of control | [3] 95 % of control | dose: 100.0 mg/kg/injection, schedule: Q04DX003 (ip), vehicle: saline 95 % of control | [8] 100 % of control | dose: 200.0 mg/kg/injection, schedule: Q04DX003 (ip), vehicle: saline 100 % of control

O=C(NNc1ncccn1)c1ccc(C(=O)NNc2ncccn2)cc1
inactive: [9] 94 % of control | [10] 93 % of control

CC1CC[N+](C)([B-](F)(F)F)CC1 (configuration not stated)
inactive: dose: 50.0 mg/kg/injection, schedule: Q01DX005 (ip), vehicle: saline 100 % of control | dose: 100.0 mg/kg/injection, schedule: Q01DX005 (ip), vehicle: saline 106 % of control

COC(=O)c1cc(OCC#CC#CCOc2ccc(O)c(C(=O)OC)c2)ccc1O
inactive: [4] 95 % of control | [5] 89 % of control | [6] 86 % of control

CC(C)(C)c1ccc(C2=NNC(C(F)(F)F)=NN2)cc1
inactive: [2] 110 % of control | [3] 104 % of control | [8] 119 % of control

C[n+]1ccc2cc(-c3ccccc3)c3ccccc3c2c1
inactive: dose: 1.56 mg/kg/injection, schedule: Q01DX009 (ip), vehicle: saline 109 % of control | dose: 3.13 mg/kg/injection, schedule: Q01DX009 (ip), vehicle: saline 116 % of control | dose: 6.25 mg/kg/injection, schedule: Q01DX009 (ip), vehicle: saline 109 % of control

O=C(OCc1ccccc1)N1C[C@@H](O)[C@H](Br)[C@H]1Cc1ccccc1
inactive: dose: 100.0 mg/kg/injection, schedule: Q01DX001 (ip), vehicle: distilled water + alcohol 103 % of control | dose: 200.0 mg/kg/injection, schedule: Q01DX001 (ip), vehicle: distilled water + alcohol 100 % of control | dose: 400.0 mg/kg/injection, schedule: Q01DX001 (ip), vehicle: distilled water + alcohol 97 % of control

NC(=O)NNc1cccc(Cl)n1
inactive: dose: 100.0 mg/kg/injection, schedule: Q01DX001 (ip), vehicle: Klucel (hydroxypropylcellulose) (HPC) 96 % of control | dose: 200.0 mg/kg/injection, schedule: Q01DX001 (ip), vehicle: Klucel (hydroxypropylcellulose) (HPC) 101 % of control | dose: 400.0 mg/kg/injection, schedule: Q01DX001 (ip), vehicle: Klucel (hydroxypropylcellulose) (HPC) 97 % of control

N#CC(=O)Nc1ccc(Cl)cc1
inactive: dose: 3.75 mg/kg/injection, schedule: Q01DX005 (ip), vehicle: saline with Tween-80 103 % of control | [9] 111 % of control | [10] 109 % of control

OC(CC1CCCCN1)c1cc(C(F)(F)F)nc2c(C(F)(F)F)cccc12 (configuration not stated)
inactive: dose: 12.5 mg/kg/injection, schedule: Q01DX009 (ip), vehicle: saline with Tween-80 101 % of control | [1] 100 % of control | [2] 108 % of control

CC1=C(C)C(=O)OC(C(C)(O)C2(O)CCC3(O)C4CC(O)C56OC5C=CC(=O)C6(C)C4CCC32C)C1 (configuration not stated)
inactive: dose: 0.75 mg/kg/injection, schedule: Q01DX005 (ip), vehicle: Klucel (hydroxypropylcellulose) (HPC) 100 % of control | dose: 1.5 mg/kg/injection, schedule: Q01DX005 (ip), vehicle: Klucel (hydroxypropylcellulose) (HPC) 102 % of control | dose: 3.0 mg/kg/injection, schedule: Q01DX005 (ip), vehicle: Klucel (hydroxypropylcellulose) (HPC) 108 % of control | dose: 6.0 mg/kg/injection, schedule: Q01DX005 (ip), vehicle: Klucel (hydroxypropylcellulose) (HPC) 111 % of control

— PubChem BioAssay AID330 (DTP/NCI, 2004)
